# Measurements from PubChem BioAssay (NCI).
#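 Test compounds were applied to cells in 96-well plates for 48 hours at 5 doses. GI50 marks 50% less growth. TGI: concentration producing complete growth inhibition.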
# How the values were obtained:
# Test in all cases: NCI-60 cell line screen, 48 h
# CAKI-1 renal = tested on: CAKI-1 renal
# EKVX NSCLC = tested on: EKVX NSCLC
# HCC-2998 colon = tested on: HCC-2998 colon
# IGROV1 ovarian = tested on: IGROV1 ovarian
# MOLT-4 leukemia = tested on: MOLT-4 leukemia
# NCI-H23 lung = tested on: NCI-H23 lung
# UACC-62 melanoma = tested on: UACC-62 melanoma
# UO-31 renal = tested on: UO-31 renal
# DU-145 prostate = tested on: DU-145 prostate
# MCF7 breast = tested on: MCF7 breast
SMILES,TGI (CAKI-1 renal) [µM],TGI (EKVX NSCLC) [µM],TGI (HCC-2998 colon) [µM],TGI (IGROV1 ovarian) [µM],TGI (MOLT-4 leukemia) [µM],TGI (NCI-H23 lung) [µM],TGI (UACC-62 melanoma) [µM],TGI (UO-31 renal) [µM],GI50 (CAKI-1 renal) [nM],GI50 (DU-145 prostate) [µM],TGI (DU-145 prostate) [µM],GI50 (EKVX NSCLC) [µM],GI50 (HCC-2998 colon) [µM],GI50 (IGROV1 ovarian) [µM],GI50 (MCF7 breast) [nM],TGI (MCF7 breast) [µM],GI50 (NCI-H23 lung) [µM],GI50 (UACC-62 melanoma) [nM],GI50 (UO-31 renal) [µM],GI50 (MOLT-4 leukemia) [µM]
COC(=O)c1cccn1C(=O)n1cccc1,> 100,> 100,> 100,> 100,> 100,> 100,> 100,> 100,–,–,–,–,–,–,–,–,–,–,–,–
Oc1ccc2ccccc2c1N=Nc1ccsc1,> 100,–,> 100,> 100,> 100,> 100,> 100,> 100,–,–,–,–,–,–,–,–,–,–,–,–
COC(=O)c1cc(O)c2cc3c(cc2c1-c1cc(OC)c(OC)c(OC)c1)OCO3,5.46,> 100,> 100,> 100,–,> 100,> 100,> 100,344,2.16,> 100,2.63,6.85,0.91,459,> 100,3.77,1170,4.92,–
Nc1c(C(=O)Nc2cccc(F)c2)sc2nc3c(cc12)C(=O)CCC3,> 100,–,> 100,> 100,> 100,> 100,> 100,> 100,387,0.354,> 100,–,1.01,3.02,304,> 100,0.608,491,–,21.9
CCOC(=O)N1CCC(=O)C(CNC23CC4CC(CC(C4)C2)C3)C1 (stereo not given),–,> 100,–,–,38.9,> 100,> 100,> 100,–,–,–,–,–,–,–,–,–,–,–,–
O=c1ncc(F)cn1C1OC(CO)C(O)C1O (stereo not given),> 100,> 100,> 51.4,> 80,> 54.3,> 100,> 64.1,> 100,–,–,–,–,–,–,–,–,–,–,–,–
CCC(=C/[C@H](C)C/C=C/C(C)=C/[C@@H](C)C(=O)[C@@H](C)[C@H](O)[C@@H](C)CC)/C=C/[C@@H]1OC(=O)C=C[C@H]1C,< 0.01,13,< 0.01,–,–,4.03,–,–,< 10,< 0.01,4.42,< 0.01,< 0.01,< 0.01,< 10,1.23,< 0.01,< 10,< 0.01,–
O=Nc1ccc(NO)c2ccccc12,25.2,–,31.7,16.4,88.1,23.5,16.4,26.4,12200,17.4,31.5,–,17.4,3.62,10500,31.3,7.03,4000,13.2,26.6
COc1cc(C2SCC(=O)N2c2ncc(C)s2)cc(OC)c1OC (stereo not given),> 50,> 50,–,> 50,> 50,> 50,49.4,> 50,12000,19.6,> 50,43.9,–,> 50,> 50000,> 50,30.6,12500,> 50,22.5
O=C(CCN1CCN(c2ccccc2)CC1)N1CCc2c([nH]c3ccccc23)C1c1cccnc1 (stereo not given),33.5,34.7,36.1,> 100,51.1,57.7,–,26.1,–,–,–,–,–,–,–,–,–,–,–,–
CC(C)(C)c1cc(-n2c(-c3ccc(Cl)cc3)nc3cc(C(=O)Nc4ccc(Cl)cc4)ccc32)n[nH]1,–,–,–,> 100,–,> 100,> 100,> 100,–,8.5,> 100,–,–,5.65,3930,> 100,4.86,2750,2.69,–
COC(=O)C(C(=O)C(=O)Nc1ccc([N+](=O)[O-])cc1[N+](=O)[O-])c1nc2ccc(Cl)cc2[nH]c1=O (stereo not given),> 100,> 100,> 100,> 100,> 100,> 100,> 100,> 100,–,–,–,–,–,–,–,–,–,–,–,–
Nc1nnnn1CCO,> 100,> 100,–,> 100,–,> 100,> 100,> 100,–,–,> 100,–,–,–,–,> 100,–,–,–,–
c1ccc(CN2COc3c(ccc4c3OCN(Cc3ccccc3)C4)C2)cc1,–,–,> 100,> 100,> 100,> 100,4.24,1.41,220,0.569,> 100,–,1.21,0.802,515,> 100,3.68,937,0.122,0.409
NC(=O)/N=C1/CCC2C3CCCC2C13,> 100,> 100,> 100,> 100,> 100,> 100,> 100,> 100,–,–,–,–,–,–,–,–,–,–,–,–
CCC[CH2][Sn]1([CH2]CCC)[O]CC(CN(C)Cc2ccccc2)[O]1 (stereo not given),7.13,27.3,23.3,30.5,20.8,14.5,16.1,24.7,1470,–,–,10.7,11,14.8,–,–,3.18,4310,12.2,3.64
CS(=O)(=O)CCc1cccc(C(=O)c2cnn(-c3ccc(F)cc3)c2N)c1,> 25,–,> 25,> 25,> 25,> 25,> 25,> 25,> 25000,> 25,> 25,–,> 25,> 25,> 25000,> 25,> 25,> 25000,> 25,> 18
O=[P+](O)c1ccsc1,> 100,> 100,–,> 100,> 100,> 100,> 100,> 100,–,–,–,–,–,–,–,–,–,–,–,–
